We go through one molecule from patent US7371780B2, “Use of calphostin C to treat drug-resistant tumor cells” (priority 2003, dated 2008).

SMILES strings stand for the structures.

Assay [1] has as its system MDA-MB231 human breast cancer cells. The experiment in a line: Death and cytoplasmic vacuolization, MDA-MB231. The conditions noted are these: data not shown. The class given is cell-based.
The subject of assay [2] is caspase-8, PARP and cytochrome C in MCF-7DOX cells. The assay can be described thus: Immunoblotting of apoptosis markers, MCF-7DOX. Type of assay: cell-based, human. How it is done: For preparation of mitochondrial and cytoplasmic cellular fractions, MCF-7, MCF-7TAX, and MCF-7DOX cells were grown in a monolayer to 70-90% confluence on 10 cm tissue culture plates. Twenty-four hours prior to extraction, the cells were treated with 50 nM light-activated calphostin C as described above. After this treatment, the cells were trypsinized, centrifuged at 1000 rpm in a Beckman GP centrifuge and washed with PBS. To the resulting cell pellet, 1 ml of ice-cold homogenization (HM) buffer was added. This buffer consisted of 85.55 g sucrose, 1.406 g MOPS, 0.292 g EDTA, and 1 ml ethanol per liter of solution, with a final pH of 7.2. Prior to use, 0.2 ml of 0.1 M PMSF, 1 Complete™ protease inhibitor tablet (Roche Diagnostics, Laval, QC), and 20 μl of 1 M DTT was added for 100 ml of HM buffer. Cells were then lysed 10 times by homogenization in a 2 ml dounce homogenizer. Nuclei in the lysate were then pelleted by centrifugation in a microfuge tube at 70 g for 10 minutes at 4° C. and the supernatant carefully removed. The supernatant was clarified by centrifugation at 1950 g for 10 minutes at 4° C. and the pellet (containing mitochondria) was resuspended in 50 μl of HM buffer. The remaining clarified supernatant was deemed the cytoplasmic fraction. […]
On the technique in general: In western blotting, separated proteins are transferred to a membrane and probed.

The test system of assay [3] is MES-SA human uterine sarcoma cells. The assay can be described thus: Death and cytoplasmic vacuolization, MES-SA. The class given is cell-based. The conditions noted are these: data not shown.

As for `COc1c(C[C@@H](C)OC(=O)Oc2ccc(O)cc2)c2c3c(C[C@@H](C)OC(=O)c4ccccc4)c(OC)c(=O)c4c(O)cc(OC)c(c5c(OC)cc(O)c(c1=O)c52)c43` [calphostin C], the “induction of death and cytoplasmic vacuolization” value was “induce both death and cytoplasmic vacuolization” in assay [1]; “induce both death and cytoplasmic vacuolization” in assay [3]. Further, in assay [2] (light-activated calphostin C, whole cell extracts), the “caspase-8 and PARP cleavage (protein levels)” value was “did not result in any change”. In addition, the “release of cytochrome C from mitochondria” value in assay [2] (mitochondrial and cytoplasmic fractions) is on record as “no clear evidence for the release of cytochrome C”.
